From patent US20230167073A1 (Teijin Pharma Limited, priority 2020, published 2023) come the findings set out here.

Bounds are passed on as bounds.

The experiment concerns the target T1, Human TRPC6 (Homo sapiens, UniProt Q9Y210).
T1 construct: expressed in transfected cells
T1 sequence (Q9Y210 1-931): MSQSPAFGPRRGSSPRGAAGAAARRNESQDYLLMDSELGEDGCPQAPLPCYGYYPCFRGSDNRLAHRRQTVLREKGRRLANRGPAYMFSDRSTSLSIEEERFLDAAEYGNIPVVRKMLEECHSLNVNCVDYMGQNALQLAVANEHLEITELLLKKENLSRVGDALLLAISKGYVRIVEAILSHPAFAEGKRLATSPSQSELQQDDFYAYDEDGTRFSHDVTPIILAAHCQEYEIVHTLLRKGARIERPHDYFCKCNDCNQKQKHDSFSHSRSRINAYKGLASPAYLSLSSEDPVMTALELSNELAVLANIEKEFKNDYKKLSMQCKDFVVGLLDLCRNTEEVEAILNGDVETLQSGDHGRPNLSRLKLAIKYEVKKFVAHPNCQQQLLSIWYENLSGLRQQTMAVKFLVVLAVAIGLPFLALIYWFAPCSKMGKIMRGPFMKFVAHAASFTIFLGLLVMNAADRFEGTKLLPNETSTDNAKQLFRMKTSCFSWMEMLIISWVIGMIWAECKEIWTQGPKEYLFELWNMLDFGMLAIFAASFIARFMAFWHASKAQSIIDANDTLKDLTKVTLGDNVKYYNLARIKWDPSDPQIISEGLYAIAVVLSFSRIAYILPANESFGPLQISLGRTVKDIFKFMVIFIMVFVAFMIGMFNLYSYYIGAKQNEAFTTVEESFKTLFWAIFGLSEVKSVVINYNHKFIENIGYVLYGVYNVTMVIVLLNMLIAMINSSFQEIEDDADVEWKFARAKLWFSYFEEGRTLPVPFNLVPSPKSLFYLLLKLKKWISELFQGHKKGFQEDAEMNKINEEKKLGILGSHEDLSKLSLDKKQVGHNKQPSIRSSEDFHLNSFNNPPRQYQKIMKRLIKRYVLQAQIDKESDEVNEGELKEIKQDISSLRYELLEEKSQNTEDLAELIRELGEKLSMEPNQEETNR
The experiment is described as follows: Evaluation of TRPC6 channel inhibitory activity (1), FLIPR Calcium 5 Assay Kit, OAG stimulation (Compound Nos. 1-1293). The experiment is classed as cell-based. The settings on record: Human TRPC6 stably-expressing cells, OAG 30 μM, FLIPR Calcium 5 Assay Kit; read-out: Inhibitory activity (pIC50 class) (converted). In a few lines: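 Stable human TRPC6 line; fluorescent Ca2+ dye loading, then 20 min compound exposure before 30 μM OAG trigger. Peak-minus-baseline signal converted to % inhibition against untreated and unstimulated wells; potency given as pIC50 band.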
Take `Cn1nc(-c2ccccc2)cc1Oc1cc(C#N)ccc1-c1cnc(C(O)CN)cn1` (stereo not drawn) [compound 314, 4-[5-(2-amino-1-hydroxyethyl)pyrazin-2-yl]-3-(2-methyl-5-phenylpyrazol-3-yl)oxybenzonitrile]: the IC50 was less than 10 nM.
`Cc1nc(-c2ccccc2)cn1Cc1cc(C#N)ccc1-c1ccc(C(O)CN)cc1` (stereo not drawn) [compound 1130, 4-[4-(2-amino-1-hydroxyethyl)phenyl]-3-[(2-methyl-4-phenylimidazol-1-yl)methyl]benzonitrile]: the IC50 is less than 10 nM.
In the case of `Cc1nc(OCC(F)(F)F)cc(Oc2cc(C#N)ccc2-n2cc([C@@H](O)CN)cn2)n1` [Compound 268, 4-[4-[(1R)-2-amino-1-hydroxyethyl]pyrazol-1-yl]-3-[2-methyl-6-(2,2,2-trifluoroethoxy)pyrimidin-4-yl]oxybenzonitrile] it was 10 to 1000 nM; in that of `CCOC(CN)c1ccc(-c2ccc(C#N)cc2Oc2cc(N3CCOCC3)nc(C)n2)cc1` (stereo not drawn) [Compound 100, 4-[4-(2-amino-1-ethoxyethyl)phenyl]-3-(2-methyl-6-morpholin-4-ylpyrimidin-4-yl)oxybenzonitrile], less than 10 nM.
The figure for `Cc1cc(Oc2cc(C#N)ccc2-c2ncc(C(C)N)cn2)cc(N2CCOCC2)n1` (stereo not drawn) [compound 701] is less than 10 nM.
With `Cc1nc(Oc2cc(C#N)ccc2-c2ncc(CCN)cn2)cc(N2CCOCC2)n1` [compound 434, 4-[5-(2-aminoethyl)pyrimidin-2-yl]-3-(2-methyl-6-morpholin-4-ylpyrimidin-4-yl)oxybenzonitrile], the IC50 is less than 10 nM.
In the case of `Cn1nc(C2CC2)cc1Oc1cc(C#N)ccc1-c1cc(N)ccn1` [compound 450, 4-(4-aminopyridin-2-yl)-3-(5-cyclopropyl-2-methylpyrazol-3-yl)oxybenzonitrile] it was greater than 1000 nM; in that of `Cc1nc(N2CCOCC2)sc1C(=O)c1cc(C#N)ccc1-c1ccc(CN)cn1` [compound 1066, 4-[5-(aminomethyl)pyridin-2-yl]-3-(4-methyl-2-morpholin-4-yl-1,3-thiazole-5-carbonyl)benzonitrile], less than 10 nM.
The figure for `CC(C)Cn1cc(Oc2cc(Cl)ccc2-c2ncc(CCN)cn2)cn1` [compound 1021, 2-[2-[4-chloro-2-[1-(2-methylpropyl)pyrazol-4-yl]oxyphenyl]pyrimidin-5-yl]ethanamine] is 10 to 1000 nM; for `Cc1nc(Oc2cc(C#N)ccc2-c2ncc(CN)cn2)cc(N2CCOC(C)(C)C2)n1` [compound 710, 4-[5-(aminomethyl)pyrimidin-2-yl]-3-[6-(2,2-dimethylmorpholin-4-yl)-2-methylpyrimidin-4-yl]oxybenzonitrile] it is 10 to 1000 nM.
Turning to `N#Cc1ccc(-c2ccc(CCN)cc2)c(Cn2cnc(-n3ccnn3)c2)c1` [compound 1122, 4-[4-(2-aminoethyl)phenyl]-3-[[4-(triazol-1-yl)imidazol-1-yl]methyl]benzonitrile], the IC50 was greater than 1000 nM.
As to `CN(C)c1cc(Oc2cc(F)ccc2-c2ccc(CCN)cn2)n(C)n1` [compound 1000, 5-[2-[5-(2-aminoethyl)pyridin-2-yl]-5-fluorophenoxy]-N,N,1-trimethylpyrazole-3-amine], the IC50 is less than 10 nM.
In the case of `Cn1nc(-c2ccccn2)cc1Oc1cc(C#N)ccc1-c1ccc(C(O)CN)cn1` (stereo not drawn) [Compound 249, 4-[5-(2-amino-1-hydroxyethyl)pyridin-2-yl]-3-(2-methyl-5-pyridin-2-ylpyrazol-3-yl)oxybenzonitrile] it was less than 10 nM; in that of `CC(C)Cn1cc(Oc2cc(C#N)ccc2-c2ncc(CCN)cn2)c(C(F)(F)F)n1` [compound 955, 4-[5-(2-aminoethyl)pyrimidin-2-yl]-3-[1-(2-methylpropyl)-3-(trifluoromethyl)pyrazol-4-yl]oxybenzonitrile], less than 10 nM.
In the case of `N#Cc1ccc(-c2ccc(CCN)cc2)c(Oc2cnnc(OCC(F)(F)F)c2)c1` [Compound 109, 4-[4-(2-aminoethyl)phenyl]-3-[6-(2,2,2-trifluoroethoxy)pyridazin-4-yl]oxybenzonitrile] it was greater than 1000 nM.
